# Results reported in patent US4806566A, “Anti-gram positive bacteria tri-yne carbonates” (Merck & Co., Inc., priority 1987, dated 1989).
# Tests used:
# [1] = system: S. arueus; assay: Minimum inhibitory concentration, agar dilution, S. aureus; assay type: cell-based; settings: Staphylococcus aureus, 24 h
# Description: (§1) The free acid of the compound of formula I was prepared as aqueous solutions at a concentration of 1.28 mg/ml. Comparative agents vancomycin and streptomycin were prepared at 1.28 mg/ml in Sorensens' buffer, pH 7.
# (§2) Each of the drugs was serially diluted twofold in 20×100 mm sterile petri dishes with the aid of a Pipetman. To each plate containing 1 ml of the antibiotic dilution was added 9 ml molten trypticase soy agar (TSA) (BBL) to yield final drug concentrations ranging from 128-0.031 mcg/ml. Plates were swirled to mix, allowed to solidify at room temperature and were stored overnight at 5° C.
# (§3) Cultures were grown in trypticase soy broth (TSB) for 16 hours at 35° C. They were diluted 1-100 in TSB to obtain an inoculum of 10^4 cfu/spot when plated using a Denley multipoint inoculator calibrated to deliver 0.0015 ml. Inoculated plates were incubated for 24 hours at 35° C.
# (§4) The minimum inhibitory concentration (MIC) was defined as the lowest concentration that allowed no growth or a barely visible haze.
# [2] = Stability of the free acid to concentration; assay type: physicochemical; settings: on concentration of solutions
# Description: (d) Due to the instability of the free acid of the compound of formula I to concentration, an alternate method was used to provide concentrated solutions. LH20 fractions 13-25 from Step C, 3250 ml, was extracted with 500 ml of 0.1M potassium phosphate buffer pH 7.2. The compound was extracted into the aqueous layer, 620 ml, which was reextracted with 200 ml of methylene chloride at pH 4.5. The methylene chloride extract was dried over anhydrous sodium sulfate. The extraction volumes could be adjusted to provide varying concentrations of the free acid of the compound of formula I in methylene chloride.
# [3] = system: Staphyloccoccus aureus methicillin-resistant (S. aureus Meth-R); assay: Minimum inhibitory concentration, agar dilution, methicillin-resistant Staphylococcus aureus; assay type: cell-based; settings: one isolate per line, 10^4 cfu/spot, trypticase soy agar, 24 hours at 35° C.
# Description: as §1, §2, §3, §4
# [4] = system: Streptococcus faecalis; assay: Minimum inhibitory concentration, agar dilution, Streptococcus faecalis; assay type: cell-based; settings: Enterococcus faecalis, 24 h, one isolate per line, 10^4 cfu/spot, trypticase soy agar, 24 hours at 35° C.
# Description: as §1, §2, §3, §4
SMILES,MIC [1],instability of the free acid to concentration [2],MIC [3],MIC [4]
"C#CC#CC#CC(O)C1OC(=O)OC1CCCCCCC(=O)O (stereo not drawn) [Free Acid of the Compound of Formula I, 5-(1-hydroxy-2,4,6-heptatriynyl)-2-oxo-1,3 dioxolane]",1 µg/mL,instability,0.5 µg/mL,–
[H]/N=C(/N)N[C@H]1[C@H](O)[C@@H](O)[C@H](O[C@@H]2O[C@@H](C)[C@](O)(C=O)[C@H]2O[C@@H]2O[C@@H](CO)[C@H](O)[C@@H](O)[C@@H]2NC)[C@@H](N/C(N)=N\[H])[C@@H]1O [Streptomycin],116 µg/mL,–,–,> 128 µg/mL
CN[C@H](CC(C)C)C(=O)N[C@H]1C(=O)N[C@@H](CC(N)=O)C(=O)N[C@H]2C(=O)N[C@H]3C(=O)N[C@H](C(=O)N[C@H](C(=O)O)c4cc(O)cc(O)c4-c4cc3ccc4O)[C@H](O)c3ccc(c(Cl)c3)Oc3cc2cc(c3O[C@@H]2O[C@H](CO)[C@@H](O)[C@H](O)[C@H]2O[C@H]2C[C@](C)(N)[C@H](O)[C@H](C)O2)Oc2ccc(cc2Cl)[C@H]1O [Vancomycin],–,–,–,4 µg/mL
